# From patent US20180325947A1, “USE OF MAPK INHIBITORS TO REDUCE LOSS OF HEMATOPOIETIC STEM CELLS DURING EX VIVO CULTURE AND/OR GENETIC MANIPULATION” (Children's Hospital Medical Center, priority 2015, published 2018)
# “Also recorded” adds a separate entry of the source.
# System: human HSC long term repopulating potential
# Test: secondary transplant (2T) in NSG mice, long term repopulating potential (LTRP)
# Type: in vivo
# Conditions: for secondary engraftment potential / long term repopulating potential (LTRP): 2T NSG mice, 6 weeks, inhibitor present during ex vivo culture, all time points; for number of 2T mice with human cell engraftment (>0.01% hCD45+ cells in BM): 6 weeks post-secondary transplant
# Experimental: FIG. 2. A preclinical model for studying adult human HSC ex vivo manipulation and gene transfer and its effect on LTRP. (Panel A) Freshly isolated or thawed mobilized peripheral blood (MPB) derived CD34+ cells were utilized for the study. Two different protocols were utilized for the study where lentivirus (LV) or γ-Retrovirus (RV) mediated gene transfer was performed at indicated time points. 0 h, 18-24 h, 36-42 h, and 72-96 h indicates the total amount of time where cells were exposed in the ex vivo culture after CD34 isolation before injection into NSG mice. (Panel B) After indicated time in culture and transduction, 1 million CD34+ starting equivalent cells were transplanted per NSG mouse after TBI intravenously (primary transplant=1T). Primary human engraftment and multi-lineage reconstitution was analyzed in mice at indicated time periods after bone marrow harvest at 6 and 12 weeks (wks) from left and right femurs, and after sacrifice at 24 wks, from all bones. A portion of cells were analyzed for FACS and the rest were depleted of mouse CD45+ cells and transplanted one to one, into secondary mice (secondary transplant=2T).
# Panel B: Number of 2T mice engrafted (>0.01% hCD45^+ cells in BM) are shown above the middle bar and those non-engrafted below.
# Human MPB derived CD34^+ cells either fresh or thawed were cultured and transduced with lentivirus (LV) or retrovirus (RV) expressing GFP for the indicated time points. Cells were harvested and phospho-p38MAPK was detected by flow cytometry. Panel A: Representative histogram plot of p-p38 (number represents mean fluorescence intensity (MFI). Panel B: Fold change of p-p38 MAPK MFI (±SEM) in human CD34^+ 38^− 90^+ 45RA^− 49f^+ cells with or without p38 inhibitor (p38i). Panel C: Human CD45^+ engraftment in NSG mice with (striped bars) or without p38 inhibitor (solid bars) after 24 weeks of primary transplant. Panel D: Human engraftment in NSG mice with or without p38i after 6 weeks of secondary transplant. Engrafted mice (>0.01% CD45^+ cells in the whole bone marrow) over total mice transplanted is shown as percentage. Human CD33^+ myeloid (Panels E and F), CD19^+ B-Lymphoid (Panels G and H) and CD34^+ hematopoietic stem/progenitor cells (HSPCs) (Panels I and J) re-constitution with or without p38i (Panels E, G, and I): GFP^− untransduced; (Panels F, H & J): GFP^+ transduced in primary transplanted mice 24 weeks post transplantation are shown. Data expressed as mean±SEM from 5 independent experiments (n=12-21 mice per group). Statistics: Student's t test, *p<0.05, **p<0.01, ***p<0.001.
# Engrafted mice (>0.01% CD45^+ cells in the whole bone marrow) are shown above the middle bar, engrafted/Total mice number is shown on the side. […] Data expressed as mean±SEM from 5 independent experiments (n=7-29 mice per group). […]
structure (smiles),measurement,setting,value
"Cc1ccc(-n2nc(C(C)(C)C)cc2NC(=O)Nc2ccc(OCCN3CCOCC3)c3ccccc23)cc1 [BIRB-796, 1-[5-tert-butyl-2-(4-methylphenyl)pyrazol-3-yl]-3-[4-(2-morpholin-4-ylethoxy)naphthalen-1-yl]urea]",secondary engraftment potential / long term repopulating potential (LTRP),,retains
same,secondary engraftment potential / long term repopulating potential (LTRP),listed as p38i,retain; also recorded: restores; also recorded: rescues
same,number of 2T mice with human cell engraftment (>0.01% hCD45+ cells in BM),,significantly increase
same,number of 2T mice with human cell engraftment (>0.01% hCD45+ cells in BM),listed as Birb796,increases
